Results reported in ChEMBL document CHEMBL1201862, “PubChem BioAssay data set” (2004).
Counter-ions that a name gives are not always drawn. Active and inactive are the calls of the source. Cut-off read from the data, not from the text of the source, for most assays here: actives have a measured EC50 and inactives only a lower limit.

Key:
[1] = Luminescence Cell-Based Dose Response HTS to Identify Activators of Luciferase Translation or Activity in H4 […] Cells. [Related pubchem assays: 1829 (Project Summary), 1814 (Primary HTS)]; type: functional
H4 = test: Luminescence Cell-Based Dose Response HTS to Identify Activators of 5'UTR Stem-Loop Driven Prion Protein mRNA Translation in H4 Neuroglioblastoma Cells. [Related pubchem assays: 1829 (Project Summary), 1814 (Primary HTS)]; type: functional; conditions: Homo sapiens
[2] = Luminescence Cell-Based Dose Confirmation HTS to Identify Activators of 5'UTR Stem-Loop Driven Alpha-Synuclein mRNA Translation in H4 Neuroglioblastoma Cells. [Related pubchem assays: 1829 (Project Summary), 1814 (Primary HTS)]; type: functional
Streptokinase A = biological target: T1, Streptokinase A (Streptococcus pyogenes serotype M1, UniProt P10520); test: S. pyogenes streptokinase expression inhibitors, potency, dose response, plasminogen activation absorbance, OD405 (AID 1914); type: functional, Streptococcus pyogenes M1 GAS;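 note: secreted streptokinase activity via plasminogen activation per viability signal from cell pellet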
T1 sequence (P10520 whole entry): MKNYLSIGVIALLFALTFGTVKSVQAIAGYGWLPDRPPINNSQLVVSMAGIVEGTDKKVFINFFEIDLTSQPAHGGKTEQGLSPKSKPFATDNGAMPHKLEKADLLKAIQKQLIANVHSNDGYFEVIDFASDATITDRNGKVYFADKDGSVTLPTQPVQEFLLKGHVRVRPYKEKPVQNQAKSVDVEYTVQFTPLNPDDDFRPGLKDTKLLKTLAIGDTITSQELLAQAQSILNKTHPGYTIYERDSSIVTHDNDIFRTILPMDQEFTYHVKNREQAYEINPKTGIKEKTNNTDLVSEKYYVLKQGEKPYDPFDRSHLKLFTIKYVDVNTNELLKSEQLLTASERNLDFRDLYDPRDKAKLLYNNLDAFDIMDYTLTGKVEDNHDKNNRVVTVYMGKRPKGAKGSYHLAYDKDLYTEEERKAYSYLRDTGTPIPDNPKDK

[3] = biological target: T2, Heat shock factor protein 1 (Mus musculus, UniProt P38532); test: HSF1 potentiators in luciferase reporter cells, confirmation, cell-based, NIH3T3, luminescence, dose retest (AID 435004); type: functional;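 note: stress induced by proteasome inhibitor MG132 added 30 min after compound; luciferase reporter driven by HSF1 response element in NIH3T3 cells; actives raise luminescence as potentiators of the MG132 stress response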
T2 sequence (P38532 whole entry): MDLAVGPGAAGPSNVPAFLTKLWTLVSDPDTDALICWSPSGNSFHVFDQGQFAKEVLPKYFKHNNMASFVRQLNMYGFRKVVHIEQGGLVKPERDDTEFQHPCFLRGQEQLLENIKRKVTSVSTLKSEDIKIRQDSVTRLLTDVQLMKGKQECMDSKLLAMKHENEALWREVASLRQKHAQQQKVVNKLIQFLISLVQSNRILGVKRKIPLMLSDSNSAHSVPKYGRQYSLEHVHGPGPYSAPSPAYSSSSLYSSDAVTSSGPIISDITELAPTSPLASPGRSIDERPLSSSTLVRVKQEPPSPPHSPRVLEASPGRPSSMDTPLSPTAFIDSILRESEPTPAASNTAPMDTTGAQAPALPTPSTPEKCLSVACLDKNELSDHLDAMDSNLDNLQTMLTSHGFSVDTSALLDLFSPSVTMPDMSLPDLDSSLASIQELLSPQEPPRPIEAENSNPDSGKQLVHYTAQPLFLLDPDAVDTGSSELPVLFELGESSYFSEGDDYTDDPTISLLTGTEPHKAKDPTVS

[4] = biological target: T3, Corticotropin-releasing factor receptor 2/Corticotropin-releasing factor-binding protein (Homo sapiens, UniProt P24387+Q13324); test: Dose Response confirmation of uHTS hits for small molecule antagonists of the CRF-binding protein and CRF-R2 receptor complex.; type: functional; conditions: read-out: IC50_Mean
T3 sequence (Q13324 whole entry): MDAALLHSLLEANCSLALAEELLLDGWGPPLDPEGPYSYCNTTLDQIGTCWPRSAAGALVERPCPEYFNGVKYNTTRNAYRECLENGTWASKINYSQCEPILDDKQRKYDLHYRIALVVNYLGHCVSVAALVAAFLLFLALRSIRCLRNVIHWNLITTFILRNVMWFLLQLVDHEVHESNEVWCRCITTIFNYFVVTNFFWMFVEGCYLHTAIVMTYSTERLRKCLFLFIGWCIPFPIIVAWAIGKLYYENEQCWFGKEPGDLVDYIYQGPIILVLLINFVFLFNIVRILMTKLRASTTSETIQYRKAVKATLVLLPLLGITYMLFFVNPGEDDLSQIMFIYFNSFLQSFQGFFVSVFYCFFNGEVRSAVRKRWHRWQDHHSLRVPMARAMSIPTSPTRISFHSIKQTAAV
T3 sequence (P24387 whole entry): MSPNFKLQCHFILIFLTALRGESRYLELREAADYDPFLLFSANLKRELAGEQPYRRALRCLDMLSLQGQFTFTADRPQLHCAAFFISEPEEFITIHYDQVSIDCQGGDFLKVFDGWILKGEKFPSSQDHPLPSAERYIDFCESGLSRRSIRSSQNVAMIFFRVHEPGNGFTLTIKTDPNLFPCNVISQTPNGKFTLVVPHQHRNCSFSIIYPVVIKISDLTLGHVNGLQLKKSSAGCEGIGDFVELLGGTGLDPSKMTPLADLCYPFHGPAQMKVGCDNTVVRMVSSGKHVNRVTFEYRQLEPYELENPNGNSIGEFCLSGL

[5] = biological target: T3, Corticotropin-releasing factor receptor 2/Corticotropin-releasing factor-binding protein; test: activators of CRF receptor 2 with binding protein – uHTS hits, confirmation (AID 602473); type: functional; conditions: read-out: EC50_Mean
[6] = tested on: Streptococcus sp. 'group A'; test: growth inhibition of control SK(-) GAS strain, dose response, counter-screen for streptokinase expression inhibitor project, luminescence, kanamycin, BacTiterGlo, confirmation (AID 1900); type: functional, organism-based
Streptococcus = test: Group A Streptococcus viability loss, dose response, counter-screen for streptokinase expression inhibitor project, luminescence, BacTiterGlo (AID 1915); type: functional, organism-based;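 note: potency for reduction of bacterial viability or growth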
[7] = inhibitors of intracellular T. cruzi replication, confirmation, NIH3T3 host cells, beta-gal luminescence (AID 2044); type: functional, cell-based;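 note: intracellular parasites grown in NIH/3T3 mouse fibroblasts as host cells; luminescent beta-galactosidase reporter signal from transgenic T. cruzi replicating inside host cells; inhibitors lower the luminescence signal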
[8] = cytotoxicity toward NIH3T3 fibroblasts, dose response, counter-screen, cell-based, ATP luminescence, mouse fibroblasts (AID 2010); type: functional;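 note: cells exposed to compound for about 90 hours before reading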
[9] = inhibitors of firefly luciferase expression or activity, dose response, H4 neuroglioma cells, luminescence (AID 1990); type: functional, cell-based
[10] = inhibitors of SNCA 5'UTR-driven reporter translation, confirmation, H4 neuroglioma cells, luminescence (AID 1988); type: functional, cell-based
[11] = Luminescence Cell-Based Dose Response HTS to Identify Inhibitors of 5'UTR Stem-Loop Driven Prion Protein mRNA Translation in H4 Neuroglioblastoma Cells. [Related pubchem assays: 1827 (Project Summary), 1813 (Primary HTS)]; type: functional
[12] = Luminescence Cell-Based Dose Retest to Confirm Inhibitors of Cancer Stem Cells. [Related pubchem assays (depositor defined):AID2717, AID2721]; type: functional; conditions: Homo sapiens
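Throughout, for AC50: cells exposed to compound for roughly 70 hours or longer before luminescence read.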

O=C(CSc1ncnc2ccccc12)c1ccc2c(c1)OCCO2
EC50 [1]: 90.6 µM (active) | EC50 (H4): > 120 µM (not active) | EC50 [2]: 12.9 µM (active)

Cc1nnc(SC(C(=O)Nc2cc(Cl)cc(Cl)c2)c2ccccc2)[nH]c1=O (centres undefined)
EC50 (Streptokinase A): > 150 µM (not active)

CCOC(=O)Cc1cnc(NC(=O)NC(C(=O)OCC)(c2ccccc2)C(F)(F)F)s1 (centres undefined)
EC50 [3]: > 260 µM (inactive)

Cc1nc(-c2ccccc2)nc2[nH]c(=O)n(-c3ccccc3)c(=O)c12
EC50 [1]: 8.63 µM (active) | EC50 (H4): > 120 µM (not active) | EC50 [2]: 16.6 µM (active)

N#Cc1c(N)nc2c(c1N)CC(COc1ccccc1)O2 (centres undefined)
EC50 [1]: 20.2 µM (active) | EC50 (H4): 10.7 µM (active) | EC50 [2]: 47.2 µM (active)

CC(=O)Nc1ccc(Nc2nc3c(S(=O)(=O)c4ccc(C)c(C)c4)nnn3c3ccccc23)cc1
EC50 [3]: 112 µM (active)

Cc1ccc(Cl)cc1N1CCN(C2CCCCC2NS(=O)(=O)c2ccccc2)CC1 (centres undefined)
EC50 [3]: > 260 µM (inactive)

Cc1ccc(NC(=O)c2ccccc2O)cc1
EC50 [3]: 35.5 µM (active)

CCOc1c(C)cc(-c2ncccc2O)cc1C
IC50 [4]: > 47.1 µM (inactive) | EC50 [5]: > 53 µM (inactive)

O=C1N=C(Nc2ccc(Cl)cc2)SC1Cc1cc(Cl)ccc1Cl (centres undefined)
EC50 [6]: 2.64 µM (active) | EC50 (Streptokinase A): > 150 µM (not active) | EC50 (Streptococcus): 7.38 µM (active)

Fc1cccc(CSc2nc3cc[nH]cc-3n2)c1
EC50 [1]: 38.2 µM (active) | EC50 (H4): 19.2 µM (active) | EC50 [2]: 39.2 µM (active)

O=C(c1ccc(N2CCNCC2)cc1)c1cccnc1
IC50 [4]: > 47.1 µM (inactive) | EC50 [5]: > 53 µM (inactive)

O=C(Nc1cc(C(F)(F)F)ccc1-n1cncn1)c1ccc(Cl)cc1
IC50 [4]: > 47.1 µM (inactive) | EC50 [5]: > 53 µM (inactive)

CCN(CC)c1ccc([N+](=O)[O-])cc1C(=O)N1CCOCC1
EC50 [3]: > 260 µM (inactive)

Cn1cccc1C(=O)OCC(=O)Nc1ccc2c(c1)CCC2
EC50 [1]: 14.5 µM (active) | EC50 (H4): 47.9 µM (inconclusive) | EC50 [2]: 6.37 µM (active)

COc1ccc(Oc2nccc(-c3ccccc3)c2C#N)cc1
IC50 [4]: 30.7 µM (active) | EC50 [1]: 9.77 µM (active) | EC50 (H4): 11.8 µM (active) | EC50 [5]: > 53 µM (inactive)

CCN(CC)C(=O)CCc1nnc(Cc2cccc(C(F)(F)F)c2)o1
EC50 [1]: 14.5 µM (active) | EC50 (H4): > 120 µM (not active) | EC50 [2]: 12.5 µM (active)

Cc1ccc(C(=O)O/N=C(\N)Cc2ccc([N+](=O)[O-])cc2)c(Cl)c1
EC50 [1]: > 120 µM (not active) | EC50 (H4): 28.6 µM (active) | EC50 [2]: > 120 µM (not active)

Cc1cc(N2CCN(C)CC2)nc2ccc(NC(=O)CCC(=O)NCCCOC(C)C)cc12
IC50 [4]: > 47.1 µM (inactive) | EC50 [5]: > 53 µM (inactive)

c1ccc2c(COn3nnc4ccccc43)cccc2c1
EC50 [1]: > 120 µM (not active) | EC50 (H4): > 120 µM (not active) | EC50 [2]: 28.7 µM (active)

c1ccn2c(SCc3cn4ccsc4n3)nnc2c1
EC50 [1]: 2.4 µM (active) | EC50 (H4): 108 µM (active) | EC50 [2]: 0.408 µM (active)

Cc1ccc(C2C(C#N)=C(N)SC(N)=C2C#N)c(C)c1
EC50 [3]: > 260 µM (inactive)

CCN1CCN(C(=O)c2ccc3c(=O)n(CCc4ccccc4)c(=O)[nH]c3c2)CC1
EC50 [1]: 63.3 µM (active) | EC50 (H4): 10.2 µM (active) | EC50 [2]: 107 µM (active)

CCCn1c(=O)c2ccccc2n2c(SCc3nc4ccccc4s3)nnc12
EC50 [1]: 29.2 µM (active) | EC50 (H4): 5.47 µM (active) | EC50 [2]: 0.359 µM (active)

CC1=CC(C)(C)N=C(Nc2ccc(C)cc2)S1
EC50 [1]: 12.6 µM (active) | EC50 (H4): 24.4 µM (active) | EC50 [2]: 15.2 µM (active)

CCn1c(SCC(=O)Nc2oc(-c3ccccc3)c(-c3ccccc3)c2C#N)nnc1-c1ccco1
EC50 [6]: 10.7 µM (active) | EC50 (Streptokinase A): 58.8 µM (active) | EC50 (Streptococcus): > 150 µM (not active)

COCCCn1c(Cc2csc(Nc3ccc(F)cc3)n2)nnc1SCC(N)=O
EC50 [3]: > 260 µM (inactive)

Cc1ccc(NC(=O)C(OC(=O)c2ccc(NC(N)=O)cc2)c2ccccc2)cc1Cl (centres undefined)
EC50 [6]: 9.28 µM (active) | EC50 (Streptokinase A): > 150 µM (not active) | EC50 (Streptococcus): 9.31 µM (active)

Cc1cc(NC(=O)Cc2ccccc2)ccc1NC(=O)c1cccs1
IC50 [4]: > 47.1 µM (inactive) | EC50 [5]: > 53 µM (inactive)

CCOC(=O)CN1CCC(c2cc(-c3ccc(Cl)cc3)[nH]n2)CC1
EC50 [3]: > 260 µM (inactive)

COc1ccc(NC(=O)CN2CCCC2c2cccs2)cc1S(=O)(=O)N1CCCCC1 (centres undefined)
IC50 [4]: > 47.1 µM (inactive) | EC50 [5]: > 53 µM (inactive)

O=C(NN1C(=O)C2C(C1=O)C1C=CC2C12CC2)c1ccc(Cl)cc1 (centres undefined)
EC50 [3]: > 260 µM (inactive)

COc1ccccc1NS(=O)(=O)c1ccc(N/N=C/c2c(C)nn(-c3ccccc3)c2N2CCCC2)c([N+](=O)[O-])c1
IC50 [4]: > 47.1 µM (inactive) | EC50 [5]: > 53 µM (inactive) | EC50 [7]: 0.501 µM (active) | EC50 [8]: > 60 µM (not active)

Cc1cccc(C)c1OCC(=O)N/N=C/C=C/c1ccco1
EC50 [3]: > 260 µM (inactive)

COc1ccc(CCCC(=O)N/N=C/c2cccc(OC)c2O)cc1C
EC50 [9]: 11.1 µM (active) | EC50 [10]: 10.6 µM (active) | EC50 [11]: 48.6 µM (active) | EC50 [6]: 2.9 µM (active) | EC50 (Streptokinase A): > 150 µM (not active) | AC50 [12]: 0.936 µM (active) | EC50 (Streptococcus): 3.61 µM (active)

Oc1ccc(Br)cc1/C=N/NC(=S)NCCc1ccccc1
EC50 [6]: 1.58 µM (active) | EC50 (Streptokinase A): > 150 µM (not active) | AC50 [12]: 4.29 µM (active) | EC50 (Streptococcus): 6.21 µM (active)

O=C(O)C1=CCCNC1 [GUVACINE HYDROCHLORIDE]
IC50 [4]: > 47.1 µM (inactive) | EC50 [5]: > 53 µM (inactive)
